Common to all, as to assay: growth of human tumour cells (NCI), 48 h
Experiment [1] relates to M14 melanoma.
Experiment [2] relates to TK-10 renal.
Experiment [3] concerns EKVX NSCLC.
Experiment [4] has as its system KM12 colon.
Experiment [5] deals with ACHN renal.
Experiment [6] concerns MALME-3M melanoma.
For experiment [7], the system named is IGROV1 ovarian.
The subject of experiment [8] is HOP-62 NSCLC.

Values joined by “and” are separate entries in the source; they are usually repeats but may differ in a detail not shown here. Identical values can stand only once.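 Where inhibition never reached the appropriate level, the endpoint shown equals the highest concentration tested. Otherwise, values were interpolated linearly from a five-concentration, 48-hour dose response in 96-well plates. Here, GI50 denotes the concentration required for 50% inhibition of growth. TGI denotes the concentration required for complete inhibition of growth.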

Turning to `CN(C)CCCNC(=O)c1cc(NC(=O)c2cc(NC(=O)CCc3c[nH]c4ccccc34)cn2C)cn1C`, the GI50 in experiment [1], in experiment [2], in experiment [3], in experiment [4], in experiment [5] and in experiment [6] was greater than 100 µM each time. The GI50 in experiment [7] is greater than 100 µM. In addition, the TGI in experiment [1], in experiment [2], in experiment [3], in experiment [4], in experiment [5] and in experiment [6] was greater than 100 µM in each case. In addition, in experiment [7], the TGI was greater than 100 µM.
As for `CN[C@H]1C=C[C@@H]2/C=C(C)/C=C/[C@@H](C)[C@H]([C@H](C)[C@H](O)[C@@H](C)NC(C)=O)OC(=O)/C=C/C=C(C)\C=C\[C@]2(C)C1`, the GI50 was 0.00765 µM in experiment [8]; < 0.001 µM and 0.0049 µM in experiment [1]; 0.0611 µM and 0.259 µM in experiment [2]; 0.00963 µM in experiment [4]; 0.0146 µM in experiment [5]; 0.0808 µM and 0.0458 µM in experiment [6]. In addition, the GI50 in experiment [7] is 0.0049 µM. The TGI is greater than 49 µM in experiment [8]; 7.24 µM in experiment [1]; greater than 49 µM in experiment [2]; greater than 49 µM in experiment [3]; greater than 49 µM in experiment [4]; greater than 49 µM in experiment [5]. In addition, the TGI was 21.7 µM in experiment [6] and greater than 49 µM in experiment [7].
Turning to `COc1cc(-c2cc3ncccc3c3nc(N)c4cccnc4c23)cc(OC)c1OC`, the GI50 in experiment [8] was 0.599 µM; in experiment [1], 0.284 µM; in experiment [2], 1.15 µM; in experiment [3] it was 0.763 µM; in experiment [4] it was 0.36 µM; in experiment [5], 0.769 µM. The GI50 in experiment [7] is 1.56 µM. For the same compound, the TGI is 87.1 µM in experiment [8]; 3.02 µM in experiment [1]; 9.29 µM in experiment [2]; 50.4 µM in experiment [3]; 33.4 µM in experiment [4]; 19.1 µM in experiment [5]. Besides, in experiment [7], the TGI is greater than 100 µM.
Consider `C=C(C)C(=O)O[C@H]1C[C@@]23O[C@@H]2CCC(=C[C@H]2OC(=O)C(=C)[C@H]12)COC3O` (stereo not given in full), for which the TGI in experiment [8], in experiment [1], in experiment [2], in experiment [3], in experiment [4] and in experiment [5] was greater than 100 µM in each case. Also, the TGI in experiment [7] was greater than 100 µM.
On to `COc1ccc(-c2cn[nH]c2-c2cc(OC)c3c(c2)OCO3)cc1`, for which the GI50 was 0.309 µM in experiment [8]; 0.207 µM in experiment [1]; 1.51 µM in experiment [2]; 0.0929 µM in experiment [4]; 0.78 µM in experiment [5]; 0.984 µM in experiment [7]. In addition, the TGI in experiment [8] came out at 24.1 µM; in experiment [1] it was 12.9 µM; in experiment [2], 63.3 µM; in experiment [4], 11.1 µM; in experiment [5] it was 48.8 µM; in experiment [7], 26.7 µM.
On to `CO[C@H]1/C=C/O[C@@]2(C)Oc3c(C)c(O)c4c(c3C2=O)C(=O)C(/C=N/N(c2ccccc2)c2ccccc2)=C(NC(=O)/C(C)=C\C=C\[C@H](C)[C@H](O)[C@@H](C)[C@@H](O)[C@@H](C)[C@H](OC(C)=O)[C@@H]1C)C4=O`, for which the GI50 in experiment [8] is 1.71 µM; in experiment [1], 1.79 µM; in experiment [2] it was 1.87 µM; in experiment [4] it was 1.75 µM; in experiment [5] it was 1.74 µM; in experiment [6] it was 1.89 µM. Further, in experiment [7], the GI50 was 2.13 µM. In addition, the TGI in experiment [8] came out at 3.17 µM; in experiment [1], 3.49 µM; in experiment [2] it was 3.55 µM; in experiment [4], 3.24 µM; in experiment [5], 3.28 µM; in experiment [6], 3.59 µM. Besides, in experiment [7], the TGI was 4.23 µM.
As for `OCc1ccc(-c2ccc(-c3ccc(CO)o3)[se]2)o1`, the GI50 in experiment [8] is greater than 80.4 µM; in experiment [1] it was 57.8 µM; in experiment [2] it was greater than 100 µM; in experiment [4], greater than 74.3 µM; in experiment [5], greater than 100 µM; in experiment [6], greater than 100 µM. Further, the GI50 in experiment [7] was 9.28 µM. Besides, the TGI in experiment [8], in experiment [1], in experiment [2], in experiment [4], in experiment [5] and in experiment [6] was greater than 100 µM each time. In addition, the TGI in experiment [7] was greater than 100 µM.
Regarding `O=c1c(Oc2ccc(F)cc2F)cc2cnc(NC3CCOCC3)nc2n1CCCO`, the GI50 in experiment [8], in experiment [1], in experiment [2], in experiment [4], in experiment [5] and in experiment [6] was greater than 25 µM in each case. Besides, the GI50 in experiment [7] was greater than 25 µM. For the same compound, the TGI in experiment [8], in experiment [1], in experiment [2], in experiment [4], in experiment [5] and in experiment [6] was greater than 25 µM in each case. This compound yielded a TGI in experiment [7] greater than 25 µM.
Regarding `CC(C)=CCc1c(OC(=O)c2c(C)cc(O)cc2O)cc(CO)c(CO)c1O`, the TGI in experiment [1] was 44.7 µM; in experiment [2], 77.9 µM; in experiment [3], greater than 100 µM; in experiment [4], 30.6 µM; in experiment [5], 37.2 µM; in experiment [6], 45.4 µM. Also, the TGI in experiment [7] turned out to be 62.2 µM.
Consider `Nc1ccc(C2=NN(c3ccccc3)C(c3ccc(Cl)cc3)C2)cc1` (stereo not given), for which the GI50 is 2.01 µM in experiment [8]; 2.35 µM in experiment [1]; 2.13 µM in experiment [2]; 1.68 µM in experiment [4]; 1.8 µM in experiment [5]; 16.2 µM in experiment [6]. In addition, the GI50 in experiment [7] was 2.89 µM. Also, the TGI in experiment [8] came to 5.05 µM; in experiment [1] it was 5.34 µM; in experiment [2], 6.16 µM; in experiment [4] it was 3.11 µM; in experiment [5] it was 3.57 µM; in experiment [6] it was 43.8 µM. Moreover, the TGI in experiment [7] was found to be 8.15 µM.

The values above are taken from PubChem BioAssay (NCI).
